#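 Values below derive from 48-hour exposures of cells grown in 96-well plates, with endpoints linearly interpolated between the two concentrations bracketing the appropriate inhibition level. The concentration for 50% growth inhibition is given as GI50. TGI: total growth inhibition.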 Where a SMILES comes first, the peptide text is derived from it. [ ]: non-standard residue; d: D form. Phe(4-Cl) = N[CH](Cc1ccc(Cl)cc1)C(=O)O; 2Nal = N[CH](Cc1ccc2ccccc2c1)C(=O)O; 3Pal = N[CH](Cc1cccnc1)C(=O)O
# Experiments:
# Assay in all cases: growth of human tumour cells (NCI), 48 h
# UACC-257 melanoma = test system: UACC-257 melanoma
# NCI-H23 lung = test system: NCI-H23 lung
# BT-549 breast = test system: BT-549 breast
# HOP-92 NSCLC = test system: HOP-92 NSCLC
# NCI-H226 lung = test system: NCI-H226 lung
# HCC-2998 colon = test system: HCC-2998 colon
# SK-OV-3 ovarian = test system: SK-OV-3 ovarian
# MOLT-4 leukemia = test system: MOLT-4 leukemia
# TK-10 renal = test system: TK-10 renal
# OVCAR-4 ovarian = test system: OVCAR-4 ovarian
# SW-620 colon = test system: SW-620 colon
# PC-3 prostate = test system: PC-3 prostate
# DU-145 prostate = test system: DU-145 prostate
# UO-31 renal = test system: UO-31 renal
# SK-MEL-2 melanoma = test system: SK-MEL-2 melanoma
# MALME-3M melanoma = test system: MALME-3M melanoma
# T-47D breast = test system: T-47D breast
# A498 renal = test system: A498 renal
# SF-539 CNS = test system: SF-539 CNS
# A549 NSCLC = test system: A549 NSCLC
# SK-MEL-28 melanoma = test system: SK-MEL-28 melanoma
# MDA-MB-435 = test system: MDA-MB-435
# CAKI-1 renal = test system: CAKI-1 renal
# HS 578T breast = test system: HS 578T breast
# UACC-62 melanoma = test system: UACC-62 melanoma
# SK-MEL-5 melanoma = test system: SK-MEL-5 melanoma
# OVCAR-8 ovarian = test system: OVCAR-8 ovarian
# RPMI-8226 leukemia = test system: RPMI-8226 leukemia
# EKVX NSCLC = test system: EKVX NSCLC
# NCI-H460 lung = test system: NCI-H460 lung
# U251 CNS = test system: U251 CNS
# 786-0 renal = test system: 786-0 renal
# ACHN renal = test system: ACHN renal
# HL-60(TB) leukemia = test system: HL-60(TB) leukemia
# HT29 colon = test system: HT29 colon
# LOX IMVI melanoma = test system: LOX IMVI melanoma
# M14 melanoma = test system: M14 melanoma
# HCT-116 colon = test system: HCT-116 colon
# OVCAR-5 ovarian = test system: OVCAR-5 ovarian
# SNB-75 CNS = test system: SNB-75 CNS
# SF-268 CNS = test system: SF-268 CNS
# HOP-62 NSCLC = test system: HOP-62 NSCLC
# OVCAR-3 ovarian = test system: OVCAR-3 ovarian
# HCT-15 colon = test system: HCT-15 colon
# IGROV1 ovarian = test system: IGROV1 ovarian
# CCRF-CEM leukemia = test system: CCRF-CEM leukemia
# COLO 205 colon = test system: COLO 205 colon
# MCF7 breast = test system: MCF7 breast
# NCI/ADR-RES ovarian = test system: NCI/ADR-RES ovarian
# MDA-MB-231 breast = test system: MDA-MB-231 breast
# SF-295 CNS = test system: SF-295 CNS
# SNB-19 CNS = test system: SNB-19 CNS
# SN12C renal = test system: SN12C renal
# NCI-H522 lung = test system: NCI-H522 lung
# KM12 colon = test system: KM12 colon
# K-562 leukemia = test system: K-562 leukemia
# SR leukemia = test system: SR leukemia
# RXF 393 renal = test system: RXF 393 renal
compound,measurement,setting,value
CC(=O)NC(Cc1ccc2ccccc2c1)C(=O)NC(Cc1ccc(Cl)cc1)C(=O)NC(Cc1cccnc1)C(=O)NC(CO)C(=O)NC(Cc1ccc(O)cc1)C(=O)NC(CCCN=C(N)N)C(=O)NC(CC(C)C)C(=O)NC(CCCN=C(N)N)C(=O)N1CCCC1C(=O)NC(C)C(N)=O (configuration not stated) (Ac-[2Nal][Phe(4-Cl)][3Pal]SYRLRPA-NH2; configuration not given here),TGI,UACC-257 melanoma,> 100 µM
same,TGI,NCI-H23 lung,> 100 µM
same,TGI,BT-549 breast,> 100 µM
same,TGI,HOP-92 NSCLC,> 100 µM
same,TGI,NCI-H226 lung,> 100 µM
CC(C)[C@@H](C(=O)O[C@@H]1/C=C/C(=O)O[C@@H](C)CCC/C=C/[C@@H]2C[C@H](O)C[C@H]21)[N+](C)(C)C,GI50,HCC-2998 colon,> 100 µM
same,TGI,HCC-2998 colon,> 100 µM
same,GI50,SK-OV-3 ovarian,> 100 µM
same,TGI,SK-OV-3 ovarian,> 100 µM
same,GI50,MOLT-4 leukemia,> 100 µM
same,TGI,MOLT-4 leukemia,> 100 µM
same,GI50,TK-10 renal,> 100 µM
same,TGI,TK-10 renal,> 100 µM
same,GI50,OVCAR-4 ovarian,> 100 µM
same,TGI,OVCAR-4 ovarian,> 100 µM
same,GI50,SW-620 colon,> 100 µM
same,TGI,SW-620 colon,> 100 µM
same,GI50,PC-3 prostate,> 100 µM
same,TGI,PC-3 prostate,> 100 µM
same,GI50,DU-145 prostate,> 100 µM
same,TGI,DU-145 prostate,> 100 µM
same,GI50,UO-31 renal,> 100 µM
same,TGI,UO-31 renal,> 100 µM
same,GI50,SK-MEL-2 melanoma,> 100 µM
same,TGI,SK-MEL-2 melanoma,> 100 µM
same,GI50,MALME-3M melanoma,> 100 µM
same,TGI,MALME-3M melanoma,> 100 µM
same,GI50,T-47D breast,> 100 µM
same,TGI,T-47D breast,> 100 µM
same,GI50,A498 renal,> 100 µM
same,TGI,A498 renal,> 100 µM
same,GI50,SF-539 CNS,> 100 µM
same,TGI,SF-539 CNS,> 100 µM
same,GI50,A549 NSCLC,> 100 µM
same,TGI,A549 NSCLC,> 100 µM
same,GI50,UACC-257 melanoma,> 100 µM
same,TGI,UACC-257 melanoma,> 100 µM
same,GI50,SK-MEL-28 melanoma,> 100 µM
same,TGI,SK-MEL-28 melanoma,> 100 µM
same,GI50,MDA-MB-435,> 100 µM
same,TGI,MDA-MB-435,> 100 µM
same,GI50,CAKI-1 renal,> 100 µM
same,TGI,CAKI-1 renal,> 100 µM
same,GI50,HS 578T breast,> 100 µM
same,TGI,HS 578T breast,> 100 µM
same,GI50,UACC-62 melanoma,> 100 µM
same,TGI,UACC-62 melanoma,> 100 µM
same,GI50,SK-MEL-5 melanoma,> 100 µM
same,TGI,SK-MEL-5 melanoma,> 100 µM
same,GI50,OVCAR-8 ovarian,> 100 µM
same,TGI,OVCAR-8 ovarian,> 100 µM
same,GI50,RPMI-8226 leukemia,> 100 µM
same,TGI,RPMI-8226 leukemia,> 100 µM
same,GI50,EKVX NSCLC,> 100 µM
same,TGI,EKVX NSCLC,> 100 µM
same,GI50,NCI-H460 lung,> 100 µM
same,TGI,NCI-H460 lung,> 100 µM
same,GI50,U251 CNS,> 100 µM
same,TGI,U251 CNS,> 100 µM
same,GI50,786-0 renal,> 100 µM
same,TGI,786-0 renal,> 100 µM
same,GI50,ACHN renal,> 100 µM
same,TGI,ACHN renal,> 100 µM
same,GI50,HL-60(TB) leukemia,> 100 µM
same,TGI,HL-60(TB) leukemia,> 100 µM
same,GI50,HT29 colon,> 100 µM
same,TGI,HT29 colon,> 100 µM
same,GI50,LOX IMVI melanoma,> 100 µM
same,TGI,LOX IMVI melanoma,> 100 µM
same,GI50,M14 melanoma,> 100 µM
same,TGI,M14 melanoma,> 100 µM
same,GI50,HCT-116 colon,> 100 µM
same,TGI,HCT-116 colon,> 100 µM
same,GI50,OVCAR-5 ovarian,> 100 µM
same,TGI,OVCAR-5 ovarian,> 100 µM
same,GI50,SNB-75 CNS,> 100 µM
same,TGI,SNB-75 CNS,> 100 µM
same,GI50,NCI-H23 lung,> 100 µM
same,TGI,NCI-H23 lung,> 100 µM
same,GI50,SF-268 CNS,> 100 µM
same,TGI,SF-268 CNS,> 100 µM
same,GI50,HOP-62 NSCLC,> 100 µM
same,TGI,HOP-62 NSCLC,> 100 µM
same,GI50,OVCAR-3 ovarian,> 100 µM
same,TGI,OVCAR-3 ovarian,> 100 µM
same,GI50,HCT-15 colon,> 100 µM
same,TGI,HCT-15 colon,> 100 µM
same,GI50,IGROV1 ovarian,> 100 µM
same,TGI,IGROV1 ovarian,> 100 µM
same,GI50,CCRF-CEM leukemia,> 100 µM
same,TGI,CCRF-CEM leukemia,> 100 µM
same,GI50,BT-549 breast,> 100 µM
same,TGI,BT-549 breast,> 100 µM
same,GI50,COLO 205 colon,> 100 µM
same,TGI,COLO 205 colon,> 100 µM
same,GI50,MCF7 breast,> 100 µM
same,TGI,MCF7 breast,> 100 µM
same,GI50,NCI/ADR-RES ovarian,> 100 µM
same,TGI,NCI/ADR-RES ovarian,> 100 µM
same,GI50,MDA-MB-231 breast,> 100 µM
same,TGI,MDA-MB-231 breast,> 100 µM
same,GI50,SF-295 CNS,> 100 µM
same,TGI,SF-295 CNS,> 100 µM
same,GI50,SNB-19 CNS,> 100 µM
same,TGI,SNB-19 CNS,> 100 µM
same,GI50,SN12C renal,> 100 µM
same,TGI,SN12C renal,> 100 µM
same,GI50,NCI-H522 lung,> 100 µM
same,TGI,NCI-H522 lung,> 100 µM
same,GI50,KM12 colon,> 100 µM
same,TGI,KM12 colon,> 100 µM
same,GI50,NCI-H226 lung,> 100 µM
same,TGI,NCI-H226 lung,> 100 µM
same,GI50,K-562 leukemia,> 100 µM
same,TGI,K-562 leukemia,> 100 µM
CC1NOC(NS(=O)(=O)c2ccc(N=Nc3c(O)c(C(=O)O)cc4ccccc34)cc2)C1C (configuration not stated),TGI,SR leukemia,> 100 µM
same,TGI,HCC-2998 colon,> 100 µM
same,TGI,SK-OV-3 ovarian,> 100 µM
same,TGI,MOLT-4 leukemia,> 100 µM
same,TGI,TK-10 renal,> 100 µM
same,TGI,OVCAR-4 ovarian,> 100 µM
same,TGI,SW-620 colon,> 100 µM
same,TGI,PC-3 prostate,> 100 µM
same,TGI,UO-31 renal,> 100 µM
same,TGI,SK-MEL-2 melanoma,> 100 µM
same,TGI,MALME-3M melanoma,> 100 µM
same,TGI,SF-539 CNS,> 100 µM
same,TGI,A549 NSCLC,> 100 µM
same,TGI,UACC-257 melanoma,> 100 µM
same,TGI,SK-MEL-28 melanoma,> 100 µM
same,TGI,MDA-MB-435,> 100 µM
same,TGI,CAKI-1 renal,> 100 µM
same,TGI,HS 578T breast,> 100 µM
same,TGI,UACC-62 melanoma,> 100 µM
same,TGI,SK-MEL-5 melanoma,> 100 µM
same,TGI,OVCAR-8 ovarian,> 100 µM
same,TGI,RPMI-8226 leukemia,> 100 µM
same,TGI,EKVX NSCLC,> 100 µM
same,TGI,NCI-H460 lung,> 100 µM
same,TGI,U251 CNS,> 100 µM
same,TGI,RXF 393 renal,> 100 µM
same,TGI,786-0 renal,> 100 µM
same,TGI,ACHN renal,> 100 µM
same,TGI,HL-60(TB) leukemia,> 100 µM
same,TGI,HT29 colon,> 100 µM
same,TGI,M14 melanoma,> 100 µM
same,TGI,HCT-116 colon,> 100 µM
same,TGI,OVCAR-5 ovarian,> 100 µM
same,TGI,SNB-75 CNS,> 100 µM
same,TGI,SF-268 CNS,> 100 µM
same,TGI,HOP-62 NSCLC,> 100 µM
same,TGI,OVCAR-3 ovarian,> 100 µM
same,TGI,HCT-15 colon,> 100 µM
same,TGI,IGROV1 ovarian,> 100 µM
same,TGI,CCRF-CEM leukemia,> 100 µM
same,TGI,BT-549 breast,> 100 µM
same,TGI,HOP-92 NSCLC,> 100 µM
same,TGI,COLO 205 colon,> 100 µM
same,TGI,MCF7 breast,> 100 µM
same,TGI,NCI/ADR-RES ovarian,> 100 µM
same,TGI,MDA-MB-231 breast,> 100 µM
same,TGI,SF-295 CNS,> 100 µM
same,TGI,SNB-19 CNS,> 100 µM
same,TGI,NCI-H522 lung,> 100 µM
same,TGI,KM12 colon,> 100 µM
same,TGI,NCI-H226 lung,> 100 µM
same,TGI,K-562 leukemia,> 100 µM

# — PubChem BioAssay (NCI)
